Columns and labels:
Type in all cases: in vivo
Fusarium oxysporum [1] = experiment: Fusarium oxysporum in tomato, greenhouse trial, drench at planting; conditions: 100 g AI/ha, 132 days after planting
Experimental: Fusarium oxysporum in Tomato:
A tomato greenhouse trial was carried out in Sanlucar de Barrameda, Cadiz, Spain in 2017 to evaluate the efficacy of different compounds against Fusarium oxysporum in tomato.
Three week old tomato plants were transplanted on Apr. 7, 2017 and the afterwards drench applied with the compounds using a water volume of 100 ml per plant.
In order to increase the disease pressure 60 ml Fusarium oxysporum suspension with a concentration of 1′000′000 spores per milliliter of water was drenched directly in the planting hole were the plants will be transplanted the next day. The assessment on disease incidence and was done 132 days after transplanting on Aug. 17, 2017.
Assessments: Pest Incidence, 132 Days after Planting

Fusarium oxysporum [2] = experiment: Fusarium oxysporum in melon, greenhouse trial, drench at planting; conditions: 60 g AI/ha, 69 days after planting
Experimental: Fusarium oxysporum in Melon:
A melon greenhouse trial was carried out in El Ejido, Almeria, Spain in 2017 to evaluate the efficacy of different compounds against Fusarium oxysporum in melon.
The melon transplants were planted on May 5, 2017 and the afterwards drench applied with the compounds using a water volume of 100 ml per plant.
In order to increase the disease pressure each plot has been inoculated with 900 ml Fusarium oxysporum suspension with a concentration of 100′000 spores per millilitre of water three days before transplanting. The first disease symptoms were visible three weeks after transplanting and an assessment on disease severity and was done 69 days after transplanting on Jul. 13, 2017.
Assessments: Pest Severity, 69 Days after Planting

Alternaria solani = Alternaria solani (early blight) on potato, field trial, in-furrow spray at planting; conditions: 250 g AI/ha, 89 days after planting
Experimental: Alternaria solani on Potato: A potato field trial was carried out in Tompkins, New York, USA in 2018 to evaluate the efficacy of different compounds against early blight disease caused by Alternaria solani. The potato tubers were applied in-furrow at planting by using boom sprayer with a flat fan nozzle. The disease occurred beginning of August and an assessment on disease severity and was done Sep. 5, 2018. [table] [table] [table] [table] [table] [table] Assessments: Pest Severity, 89 Days after Planting

Fusarium oxysporum [3] = experiment: Fusarium oxysporum on okra, field trial, drench at planting; conditions: 375 g AI/ha, 60 days after planting
Experimental: Fusarium oxysporum on Okra:
An okra field trial was carried out in Kuppanur, Coimbatore, India in 2018 to evaluate the efficacy of different compounds against Fusarium oxysporum in okra.
The okra seeds were planted on Jun. 29, 2018 and directly afterwards drench applied with the compounds using a water volume of 50 ml per plant. The disease occurred two weeks after planting and an assessment on disease incidence and was done Aug. 28, 2018.
Assessments: Pest Incidence, 60 Days after Planting

Q: For CON(C(=O)c1cn(C)nc1C(F)F)C(C)Cc1c(Cl)cc(Cl)cc1Cl (centres unmarked) [COMPOUND 2 SC 200, PYDIFLUMETOFEN], which “Pest incidence (%)” value (Fusarium oxysporum [1]; tomato Irati, CHECK 78.33) is on record?
A: The value was 15.00, B %.

Q: What about the “% efficacy based on pest incidence” value (Fusarium oxysporum [1]; tomato) of the same molecule?
A: The value was 80.85%.

Q: What about the “Pest severity (%)” value (Fusarium oxysporum [2]; melon Brisa, CHECK 82.41) of the same molecule?
A: The value was 16.67, B %.

Q: What about the “% efficacy based on pest severity” value (Fusarium oxysporum [2]; melon) of the same molecule?
A: The value was 79.77%.

Q: What does the source list for O=C(NCCc1ncc(C(F)(F)F)cc1Cl)c1ccccc1C(F)(F)F [COMPOUND 2 SC 500, Fluopyram]?
A: Pest severity (%) (Alternaria solani; potato Red Norland, CHECK 97.25): 19.75, C %; Emax at 250 g/ha (Alternaria solani; Alternaria solani, 2136 h, potato, read-out: % efficacy based on pest severity): 79.7%; Pest incidence (%) (Fusarium oxysporum [3]; okra Samrat, CHECK 84.20): 20.50, C %; Emax at 375 g/ha (Fusarium oxysporum [3]; Fusarium oxysporum, in Abelmoschus esculentus, soil, 1440 h, okra, read-out: % efficacy based on pest incidence): 75.7%

Source: patent US12317897B2, “Methods of controlling or preventing infestation of vegetable, tomato and potato plants by phytopathogenic microorganisms” (SYNGENTA CROP PROTECTION AG, priority 2017, dated 2025)
